Laboratory results as given in patent US5256664A, “Antidepressant 3-halophenylpiperazinylpropyl derivatives of substituted triazolones and triazoldiones” (priority 1992, dated 1993).

Experiments:
[1] = tested on: serotonin receptors; experiment: in vitro binding, serotonin receptors; settings: in vitro binding testing
Source text: (§1) The Formula I compounds are useful pharmacologic agents with psychotropic properties. […] Specifically, nefazodone triazoldione (XIb, "nef-triazoldione") was comparatively tested with nefazodone and the 5-hydroxyethyl metabolite ("OH-nefazodone"). […] The latter observation is significant in that agents with low affinity for alpha-receptors relative to serotonin type 2 receptors are less likely to elicit certain undesirable side effects, such as sedation and lowering of blood pressure.

[2] = HPLC of plasma from dogs given nefazodone; assay type: in vivo, dog; settings: identified by HPLC retention time only
Source text: The similarity of HPLC retention times for both keto-nefazodone and the parent drug nefazodone in many HPLC systems, as well as the small amount of the compound complicate the detection of this putative metabolite.

[3] = metabolite conversion experiment with in vitro human liver microsomal preparation; assay type: in vitro ADME; settings: compound as substrate
[4] = tested on: serotonin type 2 receptor sites; experiment: 5-HT2-mediated DOI-induced headshake response in rat; assay type: in vivo; settings: acute effect
Experimental: The efficacy of nef-triazoldione at serotonin type 2 receptor sites in vivo was determined by examining its acute effect in a rat model based on the 5-HT2 -mediated DOI (chemically, 1-(2,5-dimethoxy-4-iodophenyl)-2-aminopropane)-induced headshake response. Cf: Bedard and Pycock, Neuropharmacology 16: 663-670 (1977). […] Thus the in vivo results which correlate with selective in vitro binding are indicative of useful antidepressant effects following systemic administration of these compounds.

[5] = tested on: cholinergic receptor; experiment: cholinergic receptor binding; settings: in vitro binding
Source text: as §1

[6] = tested on: dopamine receptor; experiment: dopamine receptor binding; settings: in vitro binding
Source text: as §1

[7] = circulating metabolite after nefazodone administration to humans and animals; assay type: in vivo, humans and animals (rat and dog)
Source text: The present invention concerns compounds of Formula I and their acid addition salts and/or hydrates. [drawing 3] In the foregoing structural formula the symbol R denotes halogen, preferably chloro, and trifluoromethyl; Z is hydrogen and [drawing 4] with R^1 being hydrogen, halogen, C1-4 alkoxy and trifluoromethyl; and n is an integer from 2-4. The symbol X is either an oxygen atom, providing a carbonyl moiety; or is an acetyl group. The single and dotted lines represent either a covalent single bond or a double bond. The compounds of Formula I exist then in two structural subclasses, Ia and Ib. [drawing 5] Compounds of formula I arose from investigations of the metabolism of the antidepressant drug nefazodone. […] Subsequently, this new major metabolite was isolated and identified as having the following structure: [drawing 6]
It should be appreciated that compound Ib could also be obtained by enzymatic (human liver microsomes) conversion of compound Ia in vitro. Administration of nefazodone or structural analogs to mammals will result in significant plasma levels of the related Ib compounds. By "significant plasma levels" is meant that these levels are from one to several-fold higher than those of the parent drug.

[8] = tested on: serotonin type 2 receptors; experiment: in vitro binding, serotonin type 2 receptors; settings: compared with nefazodone and OH-nefazodone
Source text: as §1

[9] = tested on: alpha-receptor; experiment: alpha-receptor binding; settings: in vitro binding
Source text: as §1

[10] = compared with nefazodone and OH-nefazodone

With `CC(O)c1nn(CCCN2CCN(c3cccc(Cl)c3)CC2)c(=O)n1CCOc1ccccc1` (centres unmarked) [OH-nefazodone] the “affinity for serotonin receptors” value [1] was “displays affinity for serotonin receptors”.
In the case of `CC(=O)c1nn(CCCN2CCN(c3cccc(Cl)c3)CC2)c(=O)n1CCOc1ccccc1.Cl` [keto-nefazodone, 2-(3-[4-(3-Chlorophenyl)-1-piperazinyl]propyl)-5-acetyl-2,4-dihydro-4-(2-phenoxyethyl)-3H-1,2,4-triazol-3-one hydrochloride], the “amount in plasma by HPLC” value [2] is reported as “small amounts” and the “metabolite produced from substrate” value [3] is reported as “nefazodone triazoldione (XIb) was produced and isolated”.
In the case of `Cl.O=c1[nH]n(CCCN2CCN(c3cccc(Cl)c3)CC2)c(=O)n1CCOc1ccccc1` [nef-triazoldione, 2-(3-[4-(3-Chlorophenyl)-1-piperazinyl]propyl)-4-(2-phenoxyethyl)-4H-1,2,4-triazole-3,5(1H,2H)-dione hydrochloride], the “inhibition of the DOI-induced headshake response” value [4] is reported as “modest inhibition”, the “potency in DOI-induced headshake test relative to reference compounds” value [4, 10] is reported as “less potent than either nefazodone or OH-nefazodone” and the cholinergic receptor binding [5] is reported as “relatively inactive”. For the same compound, the dopamine receptor binding [6] was “relatively inactive”, the “metabolite in urine or bile samples” value ([7]; following nefazodone administration) was “No indication of this circulating metabolite had been seen in urine or bile samples” and the “blood levels of metabolite” value ([7]; following nefazodone administration to humans and animals (rat and dog)) was “Blood levels of a new and uncharacterized major metabolite of nefazodone were observed”. The “binding at serotonin type 2 receptors” value [8] was “not as robust as for both nefazodone and OH-nefazodone”, the “affinity for serotonin receptors” value [1] was “displays affinity for serotonin receptors” and the alpha-receptor binding [9] was “relatively inactive”. The “affinity at alpha-receptor binding sites relative to reference compounds” value [9, 10] was “lower affinity at alpha-receptor binding sites than the two reference compounds”.
In the case of `CCc1nn(CCCN2CCN(c3cccc(Cl)c3)CC2)c(=O)n1CCOc1ccccc1` [nefazodone, Nefazodone], the “affinity for serotonin receptors” value [1] is reported as “displays affinity for serotonin receptors”.
